Patent publication US12559769B2, “Methods and compositions for the activation of tumor cytotoxicity via human gamma-delta t-cells” (priority 2017, dated 2026)

System: Vγ9Vδ2 T cells
Assay: Activation of Vγ9Vδ2 T cells (TNF-α, flow cytometry) by THP-1 monocytic leukemia cells co-cultured with expanded PBMC
Type: cell-based, human
Experimental: THP-1 cells (2×10^5 cells) were transduced with LV-control or LV-miR30 FDPS #1 (SEQ ID NO: 68) for 7 days. Cells were treated with or without 1 μM zoledronic acid. After 24 hours, the transduced THP-1 cells were co-cultured for 4 hours with 2×10^5 PBMC cells in 5 mL round-bottom tubes. The PBMC cells had been pre-stimulated with zoledronic acid plus IL-2 for at least 11 days to expand Vγ9Vδ2 T cells. After staining for Vγ9Vδ2 and TNF-α using fluorophore-conjugated anti TCR-Vδ2 and anti-TNF-α antibody, cells were analyzed via flow cytometry. Live cells were gated; Vδ2+ and TNF-α+ cells were identified on a dot blot. The activated cytotoxic Vγ9Vδ2 T cells appeared in the upper right quadrant of the flow cytograms. Without zoledronic acid, LV-control stimulated 2.44% of TNF-α expressing Vγ9Vδ2 T cells and LV-miR30 FDPS #1 (SEQ ID NO: 68) stimulated 28.4%. With zoledronic acid treatment, LV-control stimulated 23.8% of TNF-α expressing Vγ9Vδ2 T cells and LV-miR30 FDPS #1 (SEQ ID NO: 68) stimulated 61.4%.
THP-1 cells were transduced with LV-control or LV-FDPS shRNA #4 (SEQ ID NO: 4) or Lv-GGPS1 shRNA #1 (SEQ ID NO: 70) for 3 days. Two days after transduction, cells were treated with or without 1 μM zoledronic acid. After 24 hours, the transduced THP-1 cells were co-cultured for 4 hours with 5×10^5 PBMC cells in a round bottom 96 well plate. The PBMC cells had been pre-stimulated with zoledronic acid plus IL-2 for at least 11 days to expand Vγ9Vδ2 T cells. After staining for Vγ9Vδ2 and TNF-α using fluorophore-conjugated anti TCR-Vδ2 and anti-TNF-α antibody, cells were analyzed via flow cytometry. Live cells were gated; Vδ2+ and TNF-α+ cells were identified on a dot blot. The activated cytotoxic Vγ9Vδ2 T cells appeared in the upper right quadrant of the flow cytograms. Without zoledronic acid, LV-control stimulated 1.33% of TNF-α expressing Vγ9Vδ2 T cells whereas Lv-FDPS shRNA #4 (SEQ ID NO: 4) stimulated 2.49%, Lv-GGPS1 #1 shRNA (SEQ ID NO: 70) stimulated 1.22%, and both combined stimulated 1.91%. With zoledronic acid treatment, Lv-control stimulated 5.74% of TNF-α expressing Vγ9Vδ2 T cells, whereas Lv-FDPS shRNA #4 (SEQ ID NO: 4) stimulated 10.8%, Lv-GGPS1 shRNA #1 (SEQ ID NO: 70) stimulated 4.5%, and both combined stimulated 11.5%.
ZA is a small molecule inhibitor of squalene synthase in the pathway committed to sterol synthesis. THP-1 cells were treated with either the FDPS inhibitor Zol (10 μM), the famesyl transferase inhibitor FTI (10 μM), or ZA (50 μM) for 24 hours. THP-1 cells (2.5×10^5) were co-cultured with 2.5×10^5 PBMC cells in a round bottom 96 well plate for 5 hours. The PBMC cells had been pre-stimulated with zoledronic acid plus IL-2 for at least 11 days to expand Vγ9Vδ2 T cells. After staining for Vγ9Vδ2 and TNF-α using fluorophore-conjugated anti TCR-Vδ2 and anti-TNF-α antibody, cells were analyzed via flow cytometry. Live cells were gated; Vδ2+ and TNF-α+ cells were identified on a dot blot. The activated cytotoxic Vγ9Vδ2 T cells appeared in the upper right quadrant of the flow cytograms. Untreated cells stimulated 3.08% of TNF-α expressing Vγ9Vδ2 T cells, whereas zoledronic acid treatment stimulated 40.1%, FT1277 treatment stimulated 11.7%, and zaragozic acid stimulated 2.13%.

[1] = Example 24, FIG. 28, THP-1 cells treated 10 μM for 24 hours, untreated cells 3.08%

SMILES | percent of TNF-α expressing Vγ9Vδ2 T cells (Example 17, LV-control transduced THP-1 cells, 1 μM zoledronic acid) | percent of TNF-α expressing Vγ9Vδ2 T cells (Example 21, Lv-control transduced THP-1 cells, 1 μM zoledronic acid) | percent of TNF-α expressing Vγ9Vδ2 T cells [1] | percent of TNF-α expressing Vγ9Vδ2 T cells (Example 24, FIG. 28, THP-1 cells treated 50 μM for 24 hours, untreated cells 3.08%)
O=P(O)(O)C(O)(Cn1ccnc1)P(=O)(O)O [zoledronic acid] | 23.8% | 5.74% | 40.1% | 
C=C(CC[C@]12O[C@H](C(=O)O)[C@@](O)(C(=O)O)[C@](C(=O)O)(O1)[C@H](OC(=O)/C=C/[C@@H](C)C[C@@H](C)CC)[C@H]2O)[C@@H](OC(C)=O)[C@H](C)Cc1ccccc1 [zaragozic acid] |  |  |  | 2.13%
COC(=O)[C@H](CCSC)NC(=O)c1ccc(NC[C@@H](N)CS)cc1-c1ccccc1 [FT1277] |  |  | 11.7% | 
